Data reported in patent US11427553B2, “Dihydrooxadiazinones” (Bayer Aktiengesellschaft, priority 2017, dated 2022).

System: HeLa cells
Assay: Assay 1 cell proliferation measurement (CTG, 72 h), HeLa
Assay type: cell-based, human
Settings: Homo sapiens, HeLa; Assay 1, 72 h, Cell Titer Glo; read-out: HeLa IC50 [nM] (Cervical cancer)
Description: Cell Proliferation Measurement
The antiproliferative activity of the compounds of the general formula (I) was examined in vitro in human cancer cells. For this purpose, the appropriate number of cells (Hela: 800; SK-MEL-3: 1000; A549: 800) were plated in 384-well plates with appropriate growth medium ((A549: DMEM/Ham's F12 (Biochrom; #FG 4815 with stabile Glutamine), FCS 10% final (Biochrom; #S 0415); Hela: DMEM/Ham's F12 (Biochrom; #FG 4815 with stabile Glutamine), FCS 10% final (Biochrom; #S 0415); SK-MEL-3: McCoy's 5A (Biochrom; #F 1015), FCS 10% final (Biochrom; #S 0415), L-Alanyl-L-Glutamine final: 2 mM, (Biochrom; #K 0302)) and incubated at 37° C. overnight. After 24 h, cells on one plate (0 h plate) were treated with 30 μl/cavity of CTG solution (Promega Cell Titer Glo (catalogue #G755B and G756B)) and incubated at room temperature for 10 min, and luminescence was measured by means of a VICTOR V (Perkin Elmer), in order to determine cell viability on commencement of treatment. The cells on the test plate were treated with the compounds of the general formula (I) as and incubated at 37° C. for 72 h. The compounds were added to the cells by means of an HP D300 digital dispenser in a 10-step 2.5-fold dilution series generally starting at a maximum final drug concentration of 100 nM. As control, the cells were treated with vehicle (DMSO at 0.3% final concentration). After 72 h, the cells were treated with 30 μl/cavity of CTG solution (Promega Cell Titer Glo (catalogue #G755B and G756B)) and incubated at room temperature for 10 min. and luminescence was measured by means of a VICTOR V (Perkin Elmer), in order to determine cell viability at the end of treatment. The percentage effect on cell growth and the IC50 derived therefrom were determined for each test substance using the values from the 0 h plate […] and the DMSO control […]. The IC50 values were calculated using a 4-parameter fit.

SMILES | IC50
O=C1NN=C(c2ccc(NCCCn3ccnc3)c(C(F)(F)F)c2)CO1 [Example 282, 5-[4-{[3-(1H-imidazol-1-yl)propyl]amino}-3-(trifluoromethyl)phenyl]-3,6-dihydro-2H-1,3,4-oxadiazin-2-one] | 13 nM
CN(CC(C)(C)O)c1ccc(C2=NNC(=O)OC2)cc1C(F)(F)F [Example 283, 5-{4-[(2-hydroxy-2-methylpropyl)(methyl)amino]-3-(trifluoromethyl)phenyl}-3,6-dihydro-2H-1,3,4-oxadiazin-2-one] | 13 nM
O=C1NN=C(c2ccc(N3CCC4(CCOC4)C3)c(C(F)(F)F)c2)CO1 (centres unmarked) [Example 284, 5-[4-(2-oxa-7-azaspiro[4.4]nonan-7-yl)-3-(trifluoromethyl)phenyl]-3,6-dihydro-2H-1,3,4-oxadiazin-2-one] | 14 nM
CCCC(CO)Nc1ccc(C2=NNC(=O)OC2)cc1C(F)(F)F (centres unmarked) [Example 285, 5-{4-[(1-hydroxypentan-2-yl)amino]-3-(trifluoromethyl)phenyl}-3,6-dihydro-2H-1,3,4-oxadiazin-2-one] | 14 nM
Cn1ccc(CNc2ccc(C3=NNC(=O)OC3)cc2C(F)(F)F)n1 [Example 286, 5-[4-{[(1-methyl-1H-pyrazol-3-yl)methyl]amino}-3-(trifluoromethyl)phenyl]-3,6-dihydro-2H-1,3,4-oxadiazin-2-one] | 23 nM
NC(=O)C1CN(c2ccc(C3=NNC(=O)OC3)cc2C(F)(F)F)C1 [Example 287, 1-[4-(2-oxo-3,6-dihydro-2H-1,3,4-oxadiazin-5-yl)-2-(trifluoromethyl)phenyl]azetidine-3-carboxamide] | 23 nM
O=C1NN=C(c2ccc(NCc3cccnc3)c(C(F)(F)F)c2)CO1 [Example 288, 5-[4-{[(pyridin-3-yl)methyl]amino}-3-(trifluoromethyl)phenyl]-3,6-dihydro-2H-1,3,4-oxadiazin-2-one] | 26 nM
CN(c1ccc(C2=NNC(=O)OC2)cc1C(F)(F)F)C1CCC(O)CC1 (centres unmarked) [Example 289, 5-{4-[(4-hydroxycyclohexyl)(methyl)amino]-3-(trifluoromethyl)phenyl}-3,6-dihydro-2H-1,3,4-oxadiazin-2-one] | 26 nM
O=C1CCC(CNc2ccc(C3=NNC(=O)OC3)cc2C(F)(F)F)N1 (centres unmarked) [Example 290, 5-[4-{[(5-oxopyrrolidin-2-yl)methyl]amino}-3-(trifluoromethyl)phenyl]-3,6-dihydro-2H-1,3,4-oxadiazin-2-one] | 32 nM
O=C1NN=C(c2ccc(NCCc3cnc[nH]3)c(C(F)(F)F)c2)CO1 [Example 291, 5-[4-{[2-(1H-imidazol-5-yl)ethyl]amino}-3-(trifluoromethyl)phenyl]-3,6-dihydro-2H-1,3,4-oxadiazin-2-one] | 35 nM
C[C@@H](O)[C@@H](CO)Nc1ccc(C2=NNC(=O)OC2)cc1C(F)(F)F [Example 292, 5-[4-{[(2R,3R)-1,3-dihydroxybutan-2-yl]amino}-3-(trifluoromethyl)phenyl]-3,6-dihydro-2H-1,3,4-oxadiazin-2-one] | 43 nM
CC(C)C[C@H](CO)Nc1ccc(C2=NNC(=O)OC2)cc1C(F)(F)F [Example 293, 5-[4-{[(2R)-1-hydroxy-4-methylpentan-2-yl]amino}-3-(trifluoromethyl)phenyl]-3,6-dihydro-2H-1,3,4-oxadiazin-2-one] | 43 nM
O=C1NN=C(c2ccc(NCC3CCOCC3)c(C(F)(F)F)c2)CO1 [Example 294, 5-[4-{[(oxan-4-yl)methyl]amino}-3-(trifluoromethyl)phenyl]-3,6-dihydro-2H-1,3,4-oxadiazin-2-one] | 45 nM
Cn1ccnc1CNc1ccc(C2=NNC(=O)OC2)cc1C(F)(F)F [Example 295, 5-[4-{[(1-methyl-1H-imidazol-2-yl)methyl]amino}-3-(trifluoromethyl)phenyl]-3,6-dihydro-2H-1,3,4-oxadiazin-2-one] | 47 nM
O=C1NN=C(c2ccc(NC(C3CC3)C3CC3)c(C(F)(F)F)c2)CO1 [Example 296, 5-{4-[(dicyclopropylmethyl)amino]-3-(trifluoromethyl)phenyl}-3,6-dihydro-2H-1,3,4-oxadiazin-2-one] | 59 nM
O=C1NN=C(c2ccc(NCCn3ccnn3)c(C(F)(F)F)c2)CO1 [Example 297, 5-[4-{[2-(1H-1,2,3-triazol-1-yl)ethyl]amino}-3-(trifluoromethyl)phenyl]-3,6-dihydro-2H-1,3,4-oxadiazin-2-one] | 59 nM

SMILES | IC50
CC1(CNc2ccc(C3=NNC(=O)OC3)cc2C(F)(F)F)CCOCC1 [Example 298, 5-[4-{[(4-methyloxan-4-yl)methyl]amino}-3-(trifluoromethyl)phenyl]-3,6-dihydro-2H-1,3,4-oxadiazin-2-one] | 62 nM
O=C1NN=C(c2ccc(NCc3cncnc3)c(C(F)(F)F)c2)CO1 [Example 299, 5-[4-{[(pyrimidin-5-yl)methyl]amino}-3-(trifluoromethyl)phenyl]-3,6-dihydro-2H-1,3,4-oxadiazin-2-one] | 69 nM
Cn1cc(CNc2ccc(C3=NNC(=O)OC3)cc2C(F)(F)F)cn1 [Example 300, 5-[4-{[(1-methyl-1H-pyrazol-4-yl)methyl]amino}-3-(trifluoromethyl)phenyl]-3,6-dihydro-2H-1,3,4-oxadiazin-2-one] | 90 nM
CN1CCCC(Nc2ccc(C3=NNC(=O)OC3)cc2C(F)(F)F)CC1 (centres unmarked) [Example 301, 5-{4-[(1-methylazepan-4-yl)amino]-3-(trifluoromethyl)phenyl}-3,6-dihydro-2H-1,3,4-oxadiazin-2-one] | > 100 nM
CC1CN(C)CCN(c2ccc(C3=NNC(=O)OC3)cc2C(F)(F)F)C1 (centres unmarked) [Example 302, 5-[4-(4,6-dimethyl-1,4-diazepan-1-yl)-3-(trifluoromethyl)phenyl]-3,6-dihydro-2H-1,3,4-oxadiazin-2-one] | > 100 nM
CNC(=O)CCNc1ccc(C2=NNC(=O)OC2)cc1C(F)(F)F [Example 303, N-methyl-N^3-[4-(2-oxo-3,6-dihydro-2H-1,3,4-oxadiazin-5-yl)-2-(trifluoromethyl)phenyl]-beta-alaninamide] | > 100 nM
CNC(=O)C1CCCN1c1ccc(C2=NNC(=O)OC2)cc1C(F)(F)F (centres unmarked) [Example 304, N-methyl-1-[4-(2-oxo-3,6-dihydro-2H-1,3,4-oxadiazin-5-yl)-2-(trifluoromethyl)phenyl]prolinamide] | > 100 nM
CN1CC(CNc2ccc(C3=NNC(=O)OC3)cc2C(F)(F)F)CC1=O (centres unmarked) [Example 305, 5-[4-{[(1-methyl-5-oxopyrrolidin-3-yl)methyl]amino}-3-(trifluoromethyl)phenyl]-3,6-dihydro-2H-1,3,4-oxadiazin-2-one] | > 100 nM
CCNC(=O)CNc1ccc(C2=NNC(=O)OC2)cc1C(F)(F)F [Example 306, ethyl-N^2-[4-(2-oxo-3,6-dihydro-2H-1,3,4-oxadiazin-5-yl)-2-(trifluoromethyl)phenyl]glycinamide] | > 100 nM
CN(C)C(=O)CNc1ccc(C2=NNC(=O)OC2)cc1C(F)(F)F [Example 307, N,N-dimethyl-N^2-[4-(2-oxo-3,6-dihydro-2H-1,3,4-oxadiazin-5-yl)-2-(trifluoromethyl)phenyl]glycinamide] | > 100 nM
O=C1NN=C(c2ccc(NCc3cccnn3)c(C(F)(F)F)c2)CO1 [Example 308, 5-[4-{[(pyridazin-3-yl)methyl]amino}-3-(trifluoromethyl)phenyl]-3,6-dihydro-2H-1,3,4-oxadiazin-2-one] | > 100 nM
CN1CCC(Nc2ccc(C3=NNC(=O)OC3)cc2C(F)(F)F)CC1 [Example 309, 5-{4-[(1-methylpiperidin-4-yl)amino]-3-(trifluoromethyl)phenyl}-3,6-dihydro-2H-1,3,4-oxadiazin-2-one] | > 100 nM
CN(C)C1CCN(c2ccc(C3=NNC(=O)OC3)cc2C(F)(F)F)C1 (centres unmarked) [Example 310, 5-{4-[3-(dimethylamino)pyrrolidin-1-yl]-3-(trifluoromethyl)phenyl}-3,6-dihydro-2H-1,3,4-oxadiazin-2-one] | > 100 nM
CC1CC(Nc2ccc(C3=NNC(=O)OC3)cc2C(F)(F)F)CCN1 (centres unmarked) [Example 311, 5-{4-[(2-methylpiperidin-4-yl)amino]-3-(trifluoromethyl)phenyl}-3,6-dihydro-2H-1,3,4-oxadiazin-2-one] | > 100 nM
O=C1NN=C(c2ccc(NCCCn3cnnc3)c(C(F)(F)F)c2)CO1 [Example 312, 5-[4-{[3-(4H-1,2,4-triazol-4-yl)propyl]amino}-3-(trifluoromethyl)phenyl]-3,6-dihydro-2H-1,3,4-oxadiazin-2-one] | > 100 nM
O=C1NN=C(c2ccc(NCCN3CCNC3=O)c(C(F)(F)F)c2)CO1 [Example 313, 5-[4-{[2-(2-oxoimidazolidin-1-yl)ethyl]amino}-3-(trifluoromethyl)phenyl]-3,6-dihydro-2H-1,3,4-oxadiazin-2-one] | > 100 nM
